In US10046050B2, “Targeting immunotherapy for amyloidosis” (UNIVERSITY OF TENNESSEE RESEARCH FOUNDATION, priority 2014, dated 2018):
Read-outs that look alike come from different tables or passages of the source.

Assays:
[1] = tested on: mAb clones 4, 5, 12, and 13; experiment: ELISA capture of negative control biotinylated peptides by plate-adsorbed mAb clones; type: binding, murine; details: 100 ng/well
Protocol: More particularly, 96-well ELISA microplates were coated overnight with the indicated mAbs (500 ng/well), the wells were blocked with PBS/BSA solution before addition of biotinylated p5+14 peptide (100 ng/well). Biotinylated peptides, p5R and p31G (aka p5G) were used as a negative control. Following a wash step, detection of captured peptide was achieved by addition of europium-conjugated streptavidin as described above.

mAb 7D8 = experiment: Surface plasmon resonance of mAb 7D8 binding to amino-coupled peptopes; details: 7D8 2.7 nM; for Kd: read-out: KD
Protocol: Analyses were performed using a BIAcore X surface plasmon resonance instrument (GE Healthcare) and all reagents were obtained from GE Healthcare. For chip preparation, the peptides were attached to CM-5 chips using the amino-coupling method supplied with the instrument software. Briefly, chips were activated by injection (35 μL) of a mixture of ECD/NHS at a flow rate of 5 μL/min. Immediately thereafter, 35 μL of the test peptide (peptope p75, p76, p77, or p78), diluted to 1 μg/mL in NaOAc buffer, pH 5.5, was injected. After peptide coupling, the remaining active groups on the chip were blocked by injection of 35 μL of 1 M ethanolamine-HCl pH 8.5. Test peptides p75, p76, p77, or p78 were coupled to the Fc-1 channel and peptide p5, which served as a control, was coupled to the Fc-2 channel. A sensorgram was initiated on each chip in HBS-EP buffer at 10 μL per min. An initial regeneration step consisting of a 20 μL injection of pH 2.5 glycine buffer was performed and the baseline allowed to equilibrate. Antibody 7D8 was diluted to a stock of 10 μg/mL in HBS-EP buffer which was further diluted to a 0.4 μg/mL (˜2.7 nM) working dilution immediately before injection. The antibody was injected (50 μL) and the data collected for 200 seconds using a delayed wash cycle. The chip was subjected to a regeneration step before the next test injection. Binding data were extracted from the sensorgram, aligned, and analyzed using the BIAevaluation software by fitting to the following binding models (i) Langmuir, (ii) Langmuir with mass transfer, and (iii) Interaction of a bivalent analyte [A+B→AB; AB+B→AB2].

GAQGAQAGQAGQAQGAQGAQAGQAGQ (GAQGAQAGQAGQAQGAQGAQAGQAGQ; Peptide p5G)
capture of biotinylated peptide by adsorbed mAb clones [1]: not captured

KAQKAQAKQAKQAQKAQKAQAKQAKQGGGHEDT [p76, KAQKAQAKQAKQAQKAQKAQAKQAKQGGGHEDT]
Rmax (RU) (mAb 7D8; Bivalent Analyte): 861 RU | ka1 (mAb 7D8; Bivalent Analyte): 609000 M⁻¹ s⁻¹ | ka2 (1/RUs) (mAb 7D8; Bivalent Analyte): 2.38E−03 1/RUs | kd1 (mAb 7D8; Bivalent Analyte): 0.0736 s⁻¹ | kd2 (mAb 7D8; Bivalent Analyte): 0.0774 s⁻¹ | KA (mAb 7D8; Langmuir with Mass Transfer): 6.33e+08 M⁻¹ | Req (RU) (mAb 7D8; Langmuir with Mass Transfer): 191 RU | Rmax (RU) (mAb 7D8; Langmuir with Mass Transfer): 302 RU | ka (mAb 7D8; Langmuir with Mass Transfer): 8.96e+06 M⁻¹ s⁻¹ | kd (mAb 7D8; Langmuir with Mass Transfer): 0.0137 s⁻¹ | kobs (mAb 7D8; Langmuir with Mass Transfer): 0.0372 s⁻¹ | kt (RU/(M*s)) (mAb 7D8; Langmuir with Mass Transfer): 1.43E+09 RU/(M*s) | Kd (mAb 7D8; Langmuir with Mass Transfer): 1.58 nM | KA (mAb 7D8; Langmuir): 4.43e+08 M⁻¹ | Req (RU) (mAb 7D8; Langmuir): 191 RU | Rmax (RU) (mAb 7D8; Langmuir): 351 RU | ka (mAb 7D8; Langmuir): 2.95e+06 M⁻¹ s⁻¹ | kd (mAb 7D8; Langmuir): 0.00667 s⁻¹ | kobs (mAb 7D8; Langmuir): 0.0146 s⁻¹ | Kd (mAb 7D8; Langmuir): 2.26 nM

KAQKAQAKQAKQAQKAQKAQAKQAKQGPGHEDT [p77, KAQKAQAKQAKQAQKAQKAQAKQAKQGPGHEDT]
Rmax (RU) (mAb 7D8; Bivalent Analyte): 5.43E+03 RU | ka1 (mAb 7D8; Bivalent Analyte): 44600 M⁻¹ s⁻¹ | ka2 (1/RUs) (mAb 7D8; Bivalent Analyte): 3.76E−05 1/RUs | kd1 (mAb 7D8; Bivalent Analyte): 0.0295 s⁻¹ | kd2 (mAb 7D8; Bivalent Analyte): 0.0224 s⁻¹ | KA (mAb 7D8; Langmuir with Mass Transfer): 3e+08 M⁻¹ | Req (RU) (mAb 7D8; Langmuir with Mass Transfer): 192 RU | Rmax (RU) (mAb 7D8; Langmuir with Mass Transfer): 429 RU | ka (mAb 7D8; Langmuir with Mass Transfer): 1.96e+08 M⁻¹ s⁻¹ | kd (mAb 7D8; Langmuir with Mass Transfer): 0.653 s⁻¹ | kobs (mAb 7D8; Langmuir with Mass Transfer): 1.18 s⁻¹ | kt (RU/(M*s)) (mAb 7D8; Langmuir with Mass Transfer): 4.57E+08 RU/(M*s) | Kd (mAb 7D8; Langmuir with Mass Transfer): 3.33 nM | KA (mAb 7D8; Langmuir): 1.04e+07 M⁻¹ | Req (RU) (mAb 7D8; Langmuir): 223 RU | Rmax (RU) (mAb 7D8; Langmuir): 8.16E+03 RU | ka (mAb 7D8; Langmuir): 51900 M⁻¹ s⁻¹ | kd (mAb 7D8; Langmuir): 0.00498 s⁻¹ | kobs (mAb 7D8; Langmuir): 0.00512 s⁻¹ | Kd (mAb 7D8; Langmuir): 96 nM

KAQKAQAKQAKQAQKAQKAQAKQAKQVTVHEDT [p78, KAQKAQAKQAKQAQKAQKAQAKQAKQVTVHEDT]
Rmax (RU) (mAb 7D8; Bivalent Analyte): 9.16E+03 RU | ka1 (mAb 7D8; Bivalent Analyte): 63700 M⁻¹ s⁻¹ | ka2 (1/RUs) (mAb 7D8; Bivalent Analyte): 1.10E−07 1/RUs | kd1 (mAb 7D8; Bivalent Analyte): 0.00972 s⁻¹ | kd2 (mAb 7D8; Bivalent Analyte): 2.63e-05 s⁻¹ | KA (mAb 7D8; Langmuir with Mass Transfer): 6.85e+08 M⁻¹ | Req (RU) (mAb 7D8; Langmuir with Mass Transfer): 326 RU | Rmax (RU) (mAb 7D8; Langmuir with Mass Transfer): 502 RU | ka (mAb 7D8; Langmuir with Mass Transfer): 1.29e+07 M⁻¹ s⁻¹ | kd (mAb 7D8; Langmuir with Mass Transfer): 0.0188 s⁻¹ | kobs (mAb 7D8; Langmuir with Mass Transfer): 0.0536 s⁻¹ | kt (RU/(M*s)) (mAb 7D8; Langmuir with Mass Transfer): 1.65E+09 RU/(M*s) | Kd (mAb 7D8; Langmuir with Mass Transfer): 1.46 nM | KA (mAb 7D8; Langmuir): 4.05e+08 M⁻¹ | Req (RU) (mAb 7D8; Langmuir): 331 RU | Rmax (RU) (mAb 7D8; Langmuir): 633 RU | ka (mAb 7D8; Langmuir): 2.42e+06 M⁻¹ s⁻¹ | kd (mAb 7D8; Langmuir): 0.00598 s⁻¹ | kobs (mAb 7D8; Langmuir): 0.0125 s⁻¹ | Kd (mAb 7D8; Langmuir): 2.47 nM

RAQRAQARQARQAQRAQRAQARQARQ (RAQRAQARQARQAQRAQRAQARQARQ; Peptide p5R)
capture of biotinylated peptide by adsorbed mAb clones [1]: not captured
